The target in test [1] is T1, Staphylococcus aureus lipase (SAL) (Staphylococcus aureus, UniProt Q2G155). Kind of test: X-ray co-crystal structures. Type of test: biochemical.
Test [2] concerns the target T1, Staphylococcus aureus lipase (SAL). Kind of test: pNPB hydrolysis assay. Type of test: biochemical.

IC50 data for two compounds are collected here from publication PMC11997127 (Scientific Reports, 2025).

T1 sequence (Q2G155 297-690): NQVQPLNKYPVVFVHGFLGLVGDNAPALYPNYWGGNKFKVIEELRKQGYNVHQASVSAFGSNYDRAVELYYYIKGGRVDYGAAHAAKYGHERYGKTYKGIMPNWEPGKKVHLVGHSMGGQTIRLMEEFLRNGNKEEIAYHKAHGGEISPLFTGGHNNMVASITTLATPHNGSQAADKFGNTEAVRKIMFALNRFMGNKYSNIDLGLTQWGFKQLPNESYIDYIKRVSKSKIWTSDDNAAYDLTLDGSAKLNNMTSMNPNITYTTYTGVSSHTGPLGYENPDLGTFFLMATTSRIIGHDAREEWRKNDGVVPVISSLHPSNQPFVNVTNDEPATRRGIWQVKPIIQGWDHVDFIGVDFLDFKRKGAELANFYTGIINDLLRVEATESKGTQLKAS

One may read the IC50 as the concentration at which inhibition is half-maximal. A higher IC50 goes with a need for much substance. `OC1(c2ccc(Cl)c(C(F)(F)F)c2)CCN(CCCC(c2ccc(F)cc2)c2ccc(F)cc2)CC1` [penfluridol, 1-[4,4-bis(4-fluorophenyl)butyl]-4-[4-chloro-3-(trifluoromethyl)phenyl]piperidin-4-ol] returned an IC50 in test [1] of 7.3 µM.
Turning to `O=c1[nH]c2ccccc2n1C1CCN(CCCC(c2ccc(F)cc2)c2ccc(F)cc2)CC1` [pimozide, 3-[1-[4,4-bis(4-fluorophenyl)butyl]piperidin-4-yl]-1H-benzimidazol-2-one], the IC50 in test [2] was ~48.5 µM.
